This test deals with T1, human M4 receptor (Homo sapiens, UniProt P08173).
T1 construct: expressed in transfected cells; host or cells: CHO cells
T1 sequence (P08173 1-479): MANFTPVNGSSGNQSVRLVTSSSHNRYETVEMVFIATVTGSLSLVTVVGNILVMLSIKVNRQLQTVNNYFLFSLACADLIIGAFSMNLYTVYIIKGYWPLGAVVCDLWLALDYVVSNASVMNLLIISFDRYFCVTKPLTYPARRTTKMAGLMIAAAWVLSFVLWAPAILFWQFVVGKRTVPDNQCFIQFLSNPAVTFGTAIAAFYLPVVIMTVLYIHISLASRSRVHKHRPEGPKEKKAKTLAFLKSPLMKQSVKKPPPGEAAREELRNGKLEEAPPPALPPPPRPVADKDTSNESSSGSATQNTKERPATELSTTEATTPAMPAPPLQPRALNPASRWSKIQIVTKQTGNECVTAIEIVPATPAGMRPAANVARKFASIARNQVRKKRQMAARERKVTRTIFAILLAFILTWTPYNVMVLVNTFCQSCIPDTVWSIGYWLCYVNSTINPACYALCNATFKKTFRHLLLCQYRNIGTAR
Kind of test: Radioligand ([3H]N-methylscopolamine) binding assay, membranes from CHO cells expressing human M4 receptor. To be noted: Ki against human M4 receptor; membranes from CHO cells; tritiated N-methylscopolamine 1.5 nM; read-out: K. As for the experimental part:
Binding affinity (Ki) for the compounds was measured by inhibition of radioligand binding to membranes from CHO cells expressing human M4 receptor. Membranes were prepared by nitrogen cavitation and differential centrifugation as previously described (Hoare et al., Mol. Pharmacol. 2003 March; 63(3): 751-65). The radioligand employed was tritiated N-methylscopolamine, used at a concentration of 1.5 nM. A dose-response of twelve concentrations of compound was used, ranging from […]. The assay buffer was 50 mM HEPES, 100 mM NaCl, 5 mM MgCl2, 1 mM ethylenediaminetetraacetic acid, pH-adjusted to pH 7.4. Membranes, radioligand and compound were incubated together for 90 minutes at 37° C., in a total volume of 150 μL in a 96-well plate. Receptor-bound radioligand was then collected by harvesting the assay over glass fiber filters pretreated with polyethylenimine to trap the cell membranes, using rapid vacuum filtration. Harvesting and radioactivity counting was conducted as previously described (see, e.g., Hoare et al., Mol. Pharmacol. 2003 63(3):751-65); Erratum at Mol. Pharmacol. 2005 July; 68(1): 260).
With `C[C@@H]1CN(c2cnc(C(F)(F)F)cn2)[C@@H](C)CN1C(=O)NC1CC2(C1)CN(Cc1ccc(Cl)cc1)C2` [Compound 260, (2R,5S)-N-{2-[(4-chlorophenyl)methyl]-2-azaspiro[3.3]heptan-6-yl}-2,5-dimethyl-4-[5-(trifluoromethyl)pyrazin-2-yl]piperazine-1-carboxamide], the Ki was in the range of 10 to 100 nM.
Regarding `C[C@@H]1CN(c2nc3cc(F)ccc3s2)C[C@H](C)N1C(=O)OC1CC2(C1)CN(Cc1ccccc1)C2` [Compound 438, 2-benzyl-2-azaspiro[3.3]heptan-6-yl (2R,6S)-4-(5-fluoro-1,3-benzothiazol-2-yl)-2,6-dimethylpiperazine-1-carboxylate], the Ki was under 10 nM.
Turning to `COc1ccc2nc(N3C[C@@H](C)N(C(=O)OC4CC5(C4)CN(Cc4ccccc4)C5)C[C@H]3C)cnc2c1` [Compound 201, 2-benzyl-2-azaspiro[3.3]heptan-6-yl (2R,5R)-4-(6-methoxyquinoxalin-2-yl)-2,5-dimethylpiperazine-1-carboxylate], the Ki lay within 100 to 1000 nM.
The result for `Cc1nc(N2C[C@@H](C)N(C(=O)OC3CC4(C3)CN(Cc3ccccc3)C4)[C@@H](C)C2)ncc1Cl` [Compound 279, 2-benzyl-2-azaspiro[3.3]heptan-6-yl (2R,6S)-4-(5-chloro-4-methylpyrimidin-2-yl)-2,6-dimethylpiperazine-1-carboxylate] reads 10 to 100 nM; that for `C[C@@H]1CN(c2nc3ccc(F)cc3s2)[C@@H](C)CN1C(=O)OC1CC2(C1)CN(Cc1ccc(F)cc1)C2` [Compound 383, 2-[(4-fluorophenyl)methyl]-2-azaspiro[3.3]heptan-6-yl (2R,5S)-4-(6-fluoro-1,3-benzothiazol-2-yl)-2,5-dimethylpiperazine-1-carboxylate], under 10 nM.
`C[C@@H]1CN(c2nc3ncc(C(F)(F)F)cc3s2)C[C@H](C)N1C(=O)OC1CC2(C1)CN(Cc1ccccc1)C2` [Compound 431, 2-benzyl-2-azaspiro[3.3]heptan-6-yl (2R,6S)-2,6-dimethyl-4-[6-(trifluoromethyl)-[1,3]thiazolo[4,5-b]pyridin-2-yl]piperazine-1-carboxylate]: the Ki was in the range of 10 to 100 nM.
Consider `C[C@@H]1CN(c2ncc(C(F)(F)F)cn2)C[C@@H](C)N1C(=O)NCC1CC2(C1)CN(Cc1ccccc1)C2` [Compound 68, (2R,6R)-N-({2-benzyl-2-azaspiro[3.3]heptan-6-yl}methyl)-2,6-dimethyl-4-[5-(trifluoromethyl)pyrimidin-2-yl]piperazine-1-carboxamide], for which the Ki lay within 10 to 100 nM.
With `C[C@@H]1CN(c2ncc(C(F)(F)F)cn2)[C@@H](C)CN1C(=O)OC1CC2(C1)CN(Cc1ccc(F)cc1)C2` [Compound 456, 2-[(4-fluorophenyl)methyl]-2-azaspiro[3.3]heptan-6-yl (2R,5S)-2,5-dimethyl-4-[5-(trifluoromethyl)pyrimidin-2-yl]piperazine-1-carboxylate], the Ki was under 10 nM.
Take `COc1ccc2nc(N3C[C@@H](C)N(C(=O)NC4CC5(C4)CN(Cc4ccccc4)C5)C[C@@H]3C)cnc2c1` [Compound 222, (2R,5S)-N-{2-benzyl-2-azaspiro[3.3]heptan-6-yl}-4-(6-methoxyquinoxalin-2-yl)-2,5-dimethylpiperazine-1-carboxamide]: the Ki was under 10 nM.
On to `COc1ccc2nc(N3C[C@@H](C)N(C(=O)NC4CC5(C4)CN(Cc4ccccc4)C5)[C@H](C)C3)sc2c1` [Compound 242, (2R,6R)-N-{2-benzyl-2-azaspiro[3.3]heptan-6-yl}-4-(6-methoxy-1,3-benzothiazol-2-yl)-2,6-dimethylpiperazine-1-carboxamide], for which the Ki was under 10 nM.
Regarding `C[C@@H]1CN(c2nc3ccc(C(F)(F)F)cc3s2)C[C@@H](C)N1C(=O)NC1CC2(C1)CN(Cc1ccccc1)C2` [Compound 217, (2R,6R)-N-{2-benzyl-2-azaspiro[3.3]heptan-6-yl}-2,6-dimethyl-4-[6-(trifluoromethyl)-1,3-benzothiazol-2-yl]piperazine-1-carboxamide], the Ki is under 10 nM.
With `C[C@@H]1CN(c2ncc(C(F)(F)F)cn2)C[C@H](C)N1C(=O)NC1CC2(C1)CN(Cc1ccc(Cl)nc1)C2` [Compound 307, (2R,6S)-N-{2-[(6-chloropyridin-3-yl)methyl]-2-azaspiro[3.3]heptan-6-yl}-2,6-dimethyl-4-[5-(trifluoromethyl)pyrimidin-2-yl]piperazine-1-carboxamide], the Ki lay in the range of 10 to 100 nM.
As for `C[C@@H]1CN(c2ncc(C(F)(F)F)cn2)C[C@H](C)N1C(=O)NC1CC2(C1)CN(Cc1ccc(O)cc1)C2` [Compound 319, (2R,6S)-N-{2-[(4-hydroxyphenyl)methyl]-2-azaspiro[3.3]heptan-6-yl}-2,6-dimethyl-4-[5-(trifluoromethyl)pyrimidin-2-yl]piperazine-1-carboxamide], the Ki is under 10 nM.
In the case of `C[C@@H]1CN(c2nc3ccc(C(F)(F)F)cc3o2)C[C@@H](C)N1C(=O)OC1CC2(C1)CN(Cc1ccccc1)C2` [Compound 429, 2-benzyl-2-azaspiro[3.3]heptan-6-yl (2R,6R)-2,6-dimethyl-4-[6-(trifluoromethyl)-1,3-benzoxazol-2-yl]piperazine-1-carboxylate] it was 10 to 100 nM; in that of `C[C@@H]1CN(c2ncc(C#N)cn2)C[C@H](C)N1C(=O)OC1CC2(C1)CN(Cc1ccc(F)cc1)C2` [Compound 472, 2-[(4-fluorophenyl)methyl]-2-azaspiro[3.3]heptan-6-yl (2R,6S)-4-(5-cyanopyrimidin-2-yl)-2,6-dimethylpiperazine-1-carboxylate], 10 to 100 nM.
In the case of `C[C@@H]1CN(c2ncc(C(F)(F)F)c(N)n2)C[C@H](C)N1C(=O)NC1CC2(C1)CN(Cc1ccccc1)C2` [Compound 248, (2R,6S)-4-[4-amino-5-(trifluoromethyl)pyrimidin-2-yl]-N-{2-benzyl-2-azaspiro[3.3]heptan-6-yl}-2,6-dimethylpiperazine-1-carboxamide], the Ki was under 10 nM.
In the case of `C[C@@H]1CN(c2ncc(C(F)(F)F)cn2)[C@@H](C)CN1C(=O)OC1(C)CC2(CN(Cc3ccccc3)C2)C1` [Compound 358, 2-benzyl-6-methyl-2-azaspiro[3.3]heptan-6-yl (2R,5S)-2,5-dimethyl-4-[5-(trifluoromethyl)pyrimidin-2-yl]piperazine-1-carboxylate] it was under 10 nM.
As for `C[C@@H]1CN(c2ncc(C(F)(F)F)cn2)C[C@H](C)N1C(=O)NC1CC2(C1)CN(Cc1ccccc1O)C2` [Compound 337, (2R,6S)-N-{2-[(2-hydroxyphenyl)methyl]-2-azaspiro[3.3]heptan-6-yl}-2,6-dimethyl-4-[5-(trifluoromethyl)pyrimidin-2-yl]piperazine-1-carboxamide], the Ki is 10 to 100 nM.
Take `C[C@@H]1CN(c2ncc(C(F)(F)F)cn2)C[C@H](C)N1C(=O)NC1CC2(C1)CN(Cc1ccc(C(F)(F)F)cc1)C2` [Compound 323, (2R,6S)-2,6-dimethyl-N-(2-{[4-(trifluoromethyl)phen-yl]methyl}-2-aza-spiro[3.3]heptan-6-yl)-4-[5-(trifluoromethyl)pyrimidin-2-yl]piperazine-1-carboxamide]: the Ki lay in the range of 10 to 100 nM.
Regarding `C[C@@H]1CN(c2nc3ccc(C(F)(F)F)cc3s2)[C@@H](C)CN1C(=O)OC1CC2(C1)CN(Cc1ccccc1)C2` [Compound 372, 2-benzyl-2-azaspiro[3.3]heptan-6-yl (2R,5S)-2,5-dimethyl-4-[6-(trifluoromethyl)-1,3-benzothiazol-2-yl]piperazine-1-carboxylate], the Ki was under 10 nM.
With `C[C@@H]1CN(c2cnc(C(F)(F)F)cn2)C[C@H](C)N1C(=O)OC1CC2(C1)CN(Cc1ccc(Cl)cc1)C2` [Compound 479, 2-[(4-chlorophenyl)methyl]-2-azaspiro[3.3]heptan-6-yl (2R,6S)-2,6-dimethyl-4-[5-(trifluoromethyl)pyrazin-2-yl]piperazine-1-carboxylate], the Ki lay within 10 to 100 nM.
For the compound `C[C@@H]1CN(c2ncc(C#N)cn2)[C@@H](C)CN1C(=O)OC1CC2(C1)CN(Cc1ccccc1)C2` [Compound 138, 2-benzyl-2-azaspiro[3.3]heptan-6-yl (2R,5S)-4-(5-cyanopyrimidin-2-yl)-2,5-dimethylpiperazine-1-carboxylate], the Ki was 10 to 100 nM.
In the case of `C[C@@H]1CN(c2cnc3cc(C(F)(F)F)ccc3n2)[C@@H](C)CN1C(=O)NC1CC2(C1)CN(Cc1ccccc1)C2` [Compound 237, (2R,5S)-N-{2-benzyl-2-azaspiro[3.3]heptan-6-yl}-2,5-dimethyl-4-[6-(trifluoromethyl)quinoxalin-2-yl]piperazine-1-carboxamide] it was under 10 nM.

The values are drawn from patent publication US20230129359A1, “MUSCARINIC RECEPTOR 4 ANTAGONISTS AND METHODS OF USE” (Neurocrine Biosciences, Inc., priority 2020, published 2023).
